According to US20110166348A1, “NOVEL SALT OF MORPHOLINE DERIVATIVE” (ASTELLAS PHARMA INC., priority 2008, published 2011):
Where “and” joins values, the source holds several entries; their conditions need not be identical. Identical values can stand only once. Counter-ions that a name gives are not always drawn. Like-named read-outs stand apart in the source and are kept apart here. Each block holds one compound with its values, some of them ahead of it.

Assays:
[1] = cited from earlier work
[2] = Evaluation of hygroscopicity (dynamic steam adsorption/desorption); assay type: physicochemical
Protocol: Approximately 10 mg of a sample was placed in an exclusively-used quartz-made holder and measured under the conditions of a temperature: 25° C., a measurement range: relative humidity 5 to 95%, a measurement interval: relative humidity 5%. Furthermore, the handling of the devices including data processing was conducted in accordance to the methods and procedures as indicated in each device. (Device: dynamic steam adsorption/desorption measuring device SGA-100, manufactured by VTI).
Measuring temperature: 25° C.; drying before measurement: not done; humidity at the beginning: 5% RH; maximum humidity: 95% RH; humidity at the end: 5% RH; step: 5% RH; equilibrium standard: 0.03 wt % in 5 min; maximum equilibrated time: 180 min; sampling interval: 20 sec; data recording interval: 1 min

[3] = Evaluation of stability (residual ratio of compound A after storage, HPLC-UV); assay type: physicochemical
Protocol: Evaluation of the decomposed product during storage: Approximately 5 mg of a sample was metered into a 10 mL glass mass flask, and a test was carried out in the following storage conditions.
Condition 1: 40° C.—relative humidity 75%—opening—3 months
Condition 2: 70° C.—light shielding—sealing—2 weeks
Condition 3: 25° C.—D65 (1000 lux)—sealing—2 weeks
A dissolution solvent was filled to a marked line in a mess flask including the sample after storage, the dissolved solution was taken as a sample solution, and the compound A in the sample solution was quantified. Furthermore, the detection of the compound A was carried out with UV at 254 nm and the handling of the devices including data processing was conducted in accordance to the methods and procedures as indicated in each device. (Device: LC-1100 Series manufactured by Agilent).
Further, the quantitative value indicates the residual ratio of the compound A after the test to the compound A before the test.

[4] = system: L5/L6 spinal nerve ligation models; assay: L5/L6 spinal nerve ligation model of neuropathic pain, von Frey Test; assay type: in vivo, male SD rats
Protocol: The evaluation of an analgesic effect on neuropathic pain was performed according to the method of Kim et al. using L5/L6 spinal nerve ligation models. That is, the left L5 and L6 […] nerves of male SD rats were tightly ligated with a silk thread under pentobarbital anesthesia, and thereafter, the evaluation was performed. As the assessment of pain behavior, a von Frey Test on the plantar surface of the animals was employed (Pain, 1992, Vol. 50, p. 355-363). That is, the plantar surface of the operated limb of the nerve ligation rat was stimulated by using von Frey filaments until a withdrawal response was observed, and the lowest amount of force (g) required to elicit withdrawal response was defined as a pain threshold. The evaluation of compounds was performed in a period between 7 and 14 days after the operation in which a decrease in the threshold was stably observed. On the previous day of the evaluation of compounds, a von Frey Test was performed and the rats were grouped so as to minimize the variation in the mean value of pain threshold. Each of a solvent (vehicle) and a diluted solution obtained by diluting compound A hydrochloride as a compound A with a solvent so as to give a dose of 30 mg/kg was orally administered to rats in each group. Distilled water was used as a solvent. A pain threshold was measured at 1 hour after administration. […]

[5] = 25° C., relative humidity 5 to 95%
[6] = Condition 1: 40° C., relative humidity 75%, opening, 3 months
[7] = Condition 2: 70° C., light shielding, sealing, 2 weeks
[8] = Condition 3: 25° C., D65 (1000 lux), sealing, 2 weeks

SMILES: C1=Cc2cccc(OCC3CNCCO3)c2C1.Cl (racemic) [Indeloxazine hydrochloride]
Stability under normal conditions ([1]; room temperature, tightly closed, light shielding, 36 months): stable | Weight increase by hygroscopicity ([1]; stored at relative humidity 93% for 14 days at around room temperature): substantially no weight increase

Relative humidity from which remarkably hygroscopic ([2]; 25° C., FIG. 1): around 75% | Deliquescence accompanying weight change [2, 5]: accompanied by deliquescence | Weight change(%) [2, 5]: 48.5 (accompanied % | Weight change(%) ([2]; 25° C., relative humidity 5 to 95%, listed as hydrochloride of the compound A): 50% | Relative humidity at which deliquescent ([2]; room temperature): approximately 75% | Quantitative Values (%) (residual ratio of the compound A) [3, 6]: 55% | Quantitative Values (%) (residual ratio of the compound A) [3, 7]: 100% | Quantitative Values (%) (residual ratio of the compound A) [3, 8]: 52%
SMILES: C1=Cc2cccc(OCC3CNCCO3)c2C1 (single isomer, unassigned; (+)) [Hydrochloride, (+)-2-[(inden-7-yloxy)methyl]morpholine]
Effect on pain threshold of operated side paw ([4]; 30 mg/kg orally): improved the pain threshold in the operated side of paw to the same level as that in the normal paw | % Effect (recovery ratio of pain threshold) ([4]; 30 mg/kg, p.o., 1 hour after administration, mean ± SEM, normal side paw 100%, operated side paw 0%): 94.5 ± 17.0 %

SMILES: C1=Cc2cccc(OC[C@H]3CNCCO3)c2C1.O=S(=O)(O)c1ccccc1 [Benzenesulfonate (α), (R)-2-[(1H-inden-7-yloxy)methyl]morpholine benzenesulfonate]
Weight change(%) [2, 5]: <0.1% | Quantitative Values (%) (residual ratio of the compound A) ([3]; benzenesulfonate): 101% and 100% and 94%

SMILES: C1=Cc2cccc(OC[C@H]3CNCCO3)c2C1.O=S(=O)(O)c1ccccc1 [Benzenesulfonate (β)]
Weight change(%) [2, 5]: 1.2% | Quantitative Values (%) (residual ratio of the compound A) [3]: 95% and 84% and 74%

SMILES: Br.C1=Cc2cccc(OC[C@H]3CNCCO3)c2C1 [Hydrobromide (α)]
Weight change(%) [2, 5]: 12.5% | Quantitative Values (%) (residual ratio of the compound A) [3, 6]: 98% | Quantitative Values (%) (residual ratio of the compound A) [3, 7]: 97% | Quantitative Values (%) (residual ratio of the compound A) [3, 8]: 69%

SMILES: C1=Cc2cccc(OC[C@H]3CNCCO3)c2C1.O=S(=O)(O)c1ccccc1 [benzenesulfonate]
Weight change(%) [2]: substantially no weight change
